Assays:
[1] = test system: rats; test: Carrageenan-induced inflammatory pain and oedema; format: in vivo
Description: We wanted to confirm the activity in an additional model of inflammation in another species. To evaluate the influence of compound 6 on acute inflammation, such as oedema and hyperalgesia, we tested it in the carrageenan-induced inflammation model in rats. […] As oedema is one of the most significant symptoms of inflammation resulting from the release of inflammatory mediators, we may conclude that compound 6 has some anti-inflammatory activity. […] The response to mechanical stimuli was observed as the pain withdrawal threshold (Figure 8B) decreased from the value of 138.33 ± 1.05 g (baseline) before carrageenan injection to the value of 120.83 ± 2.0 g (87.3% of the baseline) 3 h after injection, 125.83 ± 2.51 (90.9% of the baseline) 6 h after injection, and 124.17 ± 2.0 (89.7% of the baseline). […] The results obtained confirmed its analgesic activity in mechanical inflammatory hyperalgesia. […] We claim that the effect may result from the inhibition of the release of inflammatory mediators and subsequent inhibition of peripheral and central sensitization. […] The effect was not as persistent as in the mechanical hyperalgesia and was observed only 1, 2 and 3 h after induction of inflammation.
The procedure used was described previously. Briefly, the inflammation and paw oedema was induced by subplantar injection of 0.1 mL of 1% carrageenan (made in PBS) into the right hind paw of the rat. The paw volume was measured by the dislocation of the water column of the plethysmometer (Plethysmometer 7140, Ugo Basile). The hyperalgesic response to mechanical stimuli was measured using Analgesy Meter 37215, Ugo Basile. The intensity of the applied force, in grams, was recorded when the paw was withdrawn (withdrawal threshold). Moreover, the hyperalgesic response to thermal stimuli was determined by using a plantar test apparatus (Commat Ltd., Ankara, Turkey). The latency to the heat stimulus was automatically recorded. Three subsequent applications of the heating stimulus were done, separated by 1- to 2-min intervals, and the mean of these measures was taken.
Figure 8 Effect of compound 6 on carrageenan-induced oedema (A), mechanical hyperalgesia (B) and thermal hyperalgesia (C) developed after subplantar injection of 1% carrageenan in rats. Data are expressed as means ± SEM for 5–6 animals. Time 0—the initial reaction considered as the nociceptive reaction before carrageenan administration. Statistical significance compared to vehicle-treated animals: * p < 0.05, ** p < 0.01, *** p < 0.001, **** p < 0.0001. Statistical analysis: two-way ANOVA post hoc Bonferroni test. Statistical significance compared to initial value (0 time point) in the vehicle-treated group: # p < 0.05, ## p < 0.01, ### p < 0.0001. Statistical analysis: one-way ANOVA followed by Dunnett’s post hoc test.

[2] = test system: mice; test: Histamine-induced pruritus; format: in vivo; details: 25 mg/kg i.p.
Description: Intradermal injection of histamine induced scratching bouts in the amount of 62.11 ± 9.4. […].
The surface (around 2 cm^2) of the mice’s nape was shaved at least 2 days prior to experiments. On the day of the experiment, mice were individually placed in plastic chambers (15 × 15 × 30 cm) and after the 30 min habituation period, they were given an intradermal (i.d.) injection of histamine dihydrochloride (10 µmol/site) or chloroquine (CQ, 200 µg/site), which were dissolved in physiological saline and administrated in the constant volume of 20 μL. Immediately after the injection, scratching (series of movements considered as a single scratching bout) of the injected site by the hind paw was counted for 60 min or 30 min after histamine and CQ administration, respectively. Before pruritogens injection different groups of mice were treated i.p. with vehicle (10 mL/kg, negative control) or the dose–response of investigated compound.
Figure 9 The effect of compound 6 and reference compound pyrilamine (Pyr) on the number of scratching bouts during 60 min-long observation in histamine-induced pruritus (A) and 30 min-long observation in chloroquine-induced pruritus (B). The tested compound or vehicle (1% solution of Tween 80) was administered intraperitoneally (i.p.) 30 min before the intradermal (i.d.) injection of histamine or chloroquine. The results are presented as bar plots showing the mean ± SEM. Statistical analysis: one-way ANOVA followed by Dunnett’s post hoc test, * p < 0.05, ** p < 0.01, *** p < 0.001, n = 8–10 mice per group.

[3] = biological target: hH4R (Homo sapiens, UniProt Q9H3N8); test: cAMP accumulation assay (LANCE Ultra cAMP, CHO-K1 cells stably expressing hH4R); format: cell-based; parameters: expressed in transfected cells
Description: Intrinsic activity via the Gα subunit was measured using a LANCE Ultra cAMP detection kit and CHO-K1 cells stably expressing hH4R. Adenyl cyclase was stimulated by forskolin (10 µM).
Intrinsic activity in G protein-dependent pathway was measured with homogenous TR-FRET immunoassay, using LANCE Ultra cAMP kit and CHO-K1 H4R cell line or γ-irradiated recombinant CHO-K1 H4R cells (all from PerkinElmer). […] If the CHO-K1 H4R cell line was used it had been cultivated in DMEM/F12 10% FBS 400 µg/mL geneticin and passaged three times a week. […] The antagonist activity was measured in a white, opaque, 384-well microplate (PerkinElmer) with a total volume of 20 µL. […] After incubation, 5 µL of europium chelate-labelled cAMP tracer and 5 µl of ULight-labelled anti-cAMP mAb working solutions were added, mixed and incubated for 1 h. TR-FRET signal was read using a microplate reader (PerkinElmer, Waltham, MA, USA).

Chain of hH4R (Q9H3N8 whole entry): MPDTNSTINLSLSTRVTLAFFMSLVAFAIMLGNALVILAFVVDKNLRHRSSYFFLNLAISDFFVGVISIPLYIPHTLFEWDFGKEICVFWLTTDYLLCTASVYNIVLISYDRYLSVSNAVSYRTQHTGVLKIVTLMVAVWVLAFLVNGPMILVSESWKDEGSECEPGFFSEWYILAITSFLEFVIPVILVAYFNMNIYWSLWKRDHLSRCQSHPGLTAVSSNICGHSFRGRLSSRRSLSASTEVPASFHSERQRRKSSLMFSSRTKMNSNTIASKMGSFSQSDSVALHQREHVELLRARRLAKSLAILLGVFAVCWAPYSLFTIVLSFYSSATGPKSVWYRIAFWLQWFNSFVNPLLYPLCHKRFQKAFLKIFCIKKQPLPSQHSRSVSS

**Q.** What does the source list for CN1CCN(c2nc(N)nc(CC3CCCC3)n2)CC1 [Compound 6, 4-(Cyclopentylmethyl)-6-(4-methylpiperazin-1-yl)-1,3,5-triazin-2-amine]?
**A.** Pain withdrawal threshold (mechanical hyperalgesia) ([1]; 50 mg/kg, 3 h after carrageenan (vehicle 87.3%)): 122.1 % of the baseline; Pain withdrawal threshold (mechanical hyperalgesia) ([1]; 50 mg/kg, 6 h after carrageenan (vehicle 90.9%)): 119.5 % of the baseline; Pain withdrawal threshold (mechanical hyperalgesia) ([1]; 50 mg/kg, third time point (time not given, presumably 24 h; vehicle 89.7%)): 111.7 % of the baseline; Paw volume increase (carrageenan oedema) ([1]; 75 mg/kg, 1 h after carrageenan (vehicle 48.9%)): 22.1%; Paw withdrawal latency (thermal hyperalgesia) ([1]; 75 mg/kg, 1 h after inflammation induction (vehicle 62.44%)): 129.5 % of baseline; Paw volume increase (carrageenan oedema) ([1]; 75 mg/kg, 2 h after carrageenan (vehicle 79.3%)): 46.3%; Paw withdrawal latency (thermal hyperalgesia) ([1]; 75 mg/kg, 2 h after inflammation induction (vehicle 65.13%)): 103.6 % of baseline; Pain withdrawal threshold (mechanical hyperalgesia) ([1]; 75 mg/kg, 3 h after carrageenan): 107.5 % of the baseline; Paw volume increase (carrageenan oedema) ([1]; 75 mg/kg, 3 h after carrageenan (vehicle 113.0%)): 72.6%; Paw withdrawal latency (thermal hyperalgesia) ([1]; 75 mg/kg, 3 h after inflammation induction (vehicle 45.63%)): 86.3 % of baseline; Pain withdrawal threshold (mechanical hyperalgesia) ([1]; 75 mg/kg, 6 h after carrageenan): 113.2 % of the baseline; Paw volume increase (carrageenan oedema) ([1]; 75 mg/kg, 6 h after carrageenan (vehicle 115.2%)): 76.8%; Paw volume increase (carrageenan oedema) ([1]; 75 mg/kg, 24 h after carrageenan (vehicle 114.1%)): 55.8%; Pain withdrawal threshold (mechanical hyperalgesia) ([1]; 75 mg/kg, third time point (time not given, presumably 24 h)): 113.8 % of the baseline; Scratch bouts, histamine-induced pruritus, % of the control value ([2]; 60 min observation): 13.47 % of the control value; Number of scratch bouts, histamine-induced pruritus ([2]; 60 min observation (control 62.11 ± 9.4)): 8.37 ± 1.96 scratch bouts; IC50 ([3]; antagonist mode, forskolin 10 µM, histamine 140 nM, CHO-K1 hH4R cells, read-out: cAMP hH4R IC50 ± SEM): 10 ± 2 nM; Kb ([3]; calculated from IC50 by Leff–Dougall variant of Cheng–Prusoff equation, read-out: pKb cAMP ± SEM (converted)): 3.55 nM

From paper PMC10224356, “Trisubstituted 1,3,5-Triazines as Histamine H4 Receptor Antagonists with Promising Activity In Vivo” (Molecules, 2023)
